Assays:
[1] = test system: barnyard grass (Echinochloa crus-galli); assay: Experiment 1: herbicidal effects against barnyard grass (pot test, emulsifiable concentrate); assay type: in vivo; details: 25 days
barnyard grass = assay: Experiment 2: herbicidal effects against barnyard grass (pot test, granules); assay type: in vivo, Echinochloa crus-galli; details: 2.5 leaf-stage, 25 days
broad-leaf weeds = assay: Experiment 2: herbicidal effects against broad-leaf weeds (pot test, granules); assay type: in vivo; details: 25 days
[2] = test system: Hotarui (Scirpus juncoides); assay: Experiment 2: herbicidal effects against Hotarui (pot test, granules); assay type: in vivo; details: 25 days
[3] = test system: Mizugayatsuri (Cyperus serotinus); assay: Experiment 2: herbicidal effects against Mizugayatsuri (pot test, granules); assay type: in vivo; details: 25 days
[4] = Experiment 4: subacute toxicity to fish; assay type: in vivo, 2-year-old carps; details: carp, water; 0.2 ppm; 3 weeks; read-out: Survival rate after 3 weeks
Method: (§1) With respect to the compounds according to the present invention and the comparative compounds listed in Table 4, there were conducted tests on subacute toxicity to 2-year-old carps having an average weight of 20 g.
(§2) Ten 2-year-old carps were released in each of 25-liter water tanks equipped with an air-blowing apparatus and acclimatized to the surroundings while feeding for 10 days. Water in each of the water tanks was continuously replaced with fresh water so that the residence time of water in the water tanks is 6 hours. Each test compound was added to a predetermined quantity of supply water to prepare a 0.2 ppm aqueous solution of each compound, and each of the aqueous solutions was continuously added to the water in the tank. After three weeks, the hematocrit values of all the survival carps were determined. The hematocrit value used herein is intended to mean a volume percentage of erythrocyte contained in the blood.

carps = assay: Experiment 4: subacute toxicity to fish; assay type: in vivo, 2-year-old carps; details: 0.2 ppm; 3 weeks
Method: as §1, §2

[5] = 1.5 leaf-stage of barnyard grass, 150 g/10a.
[6] = 1.5 leaf-stage of barnyard grass, 300 g/10a.
[7] = 1.5 leaf-stage of barnyard grass, 600 g/10a.
[8] = 3 leaf-stage of barnyard grass, 150 g/10a.
[9] = 3 leaf-stage of barnyard grass, 300 g/10a.
[10] = 3 leaf-stage of barnyard grass, 600 g/10a.

Row | SMILES | herbicidal activity (barnyard grass) [1, 5] | herbicidal activity (barnyard grass) [1, 6] | herbicidal activity (barnyard grass) [1, 7] | herbicidal activity (barnyard grass) [1, 8] | herbicidal activity (barnyard grass) [1, 9] | herbicidal activity (barnyard grass) [1, 10] | herbicidal activity (barnyard grass) (barnyard grass; 150 g/10a.) | herbicidal activity (barnyard grass) (barnyard grass; 300 g/10a.) | herbicidal activity (barnyard grass) (barnyard grass; 600 g/10a.) | Herbicidal activity broad-leaf weeds (broad-leaf weeds; 150 g/10a.) | Herbicidal activity broad-leaf weeds (broad-leaf weeds; 300 g/10a.) | Herbicidal activity broad-leaf weeds (broad-leaf weeds; 600 g/10a.) | Herbicidal activity Hotarui (Scirpus juncoides) ([2]; 150 g/10a.) | Herbicidal activity Hotarui (Scirpus juncoides) ([2]; 300 g/10a.) | Herbicidal activity Hotarui (Scirpus juncoides) ([2]; 600 g/10a.) | Herbicidal activity Mizugayatsuri (Cyperus serotinus) ([3]; 150 g/10a.) | Herbicidal activity Mizugayatsuri (Cyperus serotinus) ([3]; 300 g/10a.) | Herbicidal activity Mizugayatsuri (Cyperus serotinus) ([3]; 600 g/10a.) | survival at 504 h [4] [%] | Average Hematocrit Value of survival fish (carps) [%]
1 | CC1CCCCN1C(=O)SCCCCCCl (stereo not drawn) [Compound 2, S-(5-chloropentyl)-(2-methyl)-piperidine-1-carbothioate] | 5 (more than 90%) | 5 (more than 90%) | 5 (more than 90%) | 5 (more than 90%) | 5 (more than 90%) | 5 (more than 90%) | 5 (more than 90%) | 5 (more than 90%) | 5 (more than 90%) | 5 (more than 90%) | 5 (more than 90%) | 5 (more than 90%) | 3 (50 to 69%) | 4 (70 to 89%) | 5 (more than 90%) | 3 (50 to 69%) | 4 (70 to 89%) | 5 (more than 90%) | 100 | 30
2 | CC1CCCCN1C(=O)SCCCCCCCl (stereo not drawn) [Compound 3, S-(6-chlorohexyl)-(2-methyl)-piperidine-1-carbothioate] | 5 (more than 90%) | 5 (more than 90%) | 5 (more than 90%) | 4 (70 to 89%) | 5 (more than 90%) | 5 (more than 90%) | 5 (more than 90%) | 5 (more than 90%) | 5 (more than 90%) | 4 (70 to 89%) | 5 (more than 90%) | 5 (more than 90%) | 3 (50 to 69%) | 4 (70 to 89%) | 5 (more than 90%) | 4 (70 to 89%) | 4 (70 to 89%) | 5 (more than 90%) | – | –
3 | CC1CCCCN1C(=O)SCCCCCCCCCl (stereo not drawn) [Compound 4, S-(8-chlorooctyl)-(2-methyl)-piperidine-1-carbothioate] | 5 (more than 90%) | 5 (more than 90%) | 5 (more than 90%) | 4 (70 to 89%) | 5 (more than 90%) | 5 (more than 90%) | 4 (70 to 89%) | 5 (more than 90%) | 5 (more than 90%) | 3 (50 to 69%) | 4 (70 to 89%) | 5 (more than 90%) | 2 (30 to 49%) | 4 (70 to 89%) | 5 (more than 90%) | 2 (30 to 49%) | 3 (50 to 69%) | 5 (more than 90%) | – | –
4 | CC1CCCCN1C(=O)SCCCCCCCCCCCl (stereo not drawn) [Compound 5, S-(10-chlorodecyl)-(2-methyl)-piperidine-1-carbothioate] | – | 5 (more than 90%) | 5 (more than 90%) | – | 4 (70 to 89%) | 5 (more than 90%) | – | 5 (more than 90%) | 5 (more than 90%) | – | 4 (70 to 89%) | 5 (more than 90%) | – | 4 (70 to 89%) | 5 (more than 90%) | – | 3 (50 to 69%) | 5 (more than 90%) | – | –
5 | CC1CCC(C)CN(C(=O)SCCCCCCCl)C1 (stereo not drawn) [Compound 8, S-(6-chlorohexyl)-3,6-dimethyl-hexahydro-1H-azepine-1-carbothioate] | 5 (more than 90%) | 5 (more than 90%) | 5 (more than 90%) | 5 (more than 90%) | 5 (more than 90%) | 5 (more than 90%) | – | – | – | – | – | – | – | – | – | – | – | – | 100 | 35
6 | CSC(=O)N1CC(C)CCC(C)C1 (centres unmarked) [Compound 14, reference compound] | – | – | – | – | 3 (50 to 69%) | – | – | – | – | – | – | – | – | – | – | – | – | – | – | –
7 | CCSC(=O)N1CC(C)CCC(C)C1 (centres unmarked) [Compound 15, reference compound] | – | – | – | – | 3 (50 to 69%) | – | – | – | – | – | – | – | – | – | – | – | – | – | – | –
8 | CCCSC(=O)N1CC(C)CCC(C)C1 (centres unmarked) [Compound 16, reference compound] | – | – | – | – | 3 (50 to 69%) | – | – | – | – | – | – | – | – | – | – | – | – | – | – | –
9 | CCCCSC(=O)N1CC(C)CCC(C)C1 (centres unmarked) [Compound 17, reference compound] | – | – | – | – | 3 (50 to 69%) | – | – | – | – | – | – | – | – | – | – | – | – | – | – | –
10 | CCCCCCCCCCSC(=O)N1CC(C)CCC(C)C1 (centres unmarked) [Compound 19, reference compound] | – | – | – | – | 1 (10 to 29%) | – | – | – | – | – | – | – | – | – | – | – | – | – | – | –
11 | CC1CCC(C)CN(C(=O)SCCCCCCCl)C1 (stereo not drawn) [Compound, S-(6-chlorohexyl)-3,6-dimethyl-hexahydro-1H-azepine-1-carbothioate] | – | – | – | – | – | – | 5 (more than 90%) | 5 (more than 90%) | – | 3 (50 to 69%) | 5 (more than 90%) | – | 3 (50 to 69%) | 5 (more than 90%) | – | 2 (30 to 49%) | 4 (70 to 89%) | – | – | –

— patent publication US4400199A, “Thiolcarbamate compounds and their use as herbicides” (priority 1981, dated 1983)
